Here are results for 3 molecules from patent US10004723B2, “Aromatase inhibitor-releasing intravaginal device” (University of Saskatchewan, priority 2013, dated 2018).

Marks after values point to notes of the source that are not given here.

Data set [1] concerns MCF-7 cancer cell preparations. Kind of data set: Reported IC50 in MCF-7 cancer cell preparations. Also on record: species or system human. The following applies: based on the reported IC50 values.
For data set [2], the system named is bovine granulosa cells. The experiment in a line: Inhibition of estradiol production in bovine granulosa cell culture. It is filed as cell-based. The following applies: for concentration of estradiol compared with negative control (no FSH stimulation): letrozole 20 and 2 ng/mL, anastrozole 200 and 20 ng/mL, FSH-stimulated cells. The protocol: Inhibition of estradiol production by two aromatase inhibitors (letrozole and anastrozole) and a benzimidazole (fenbendazole) was tested in vitro using a bovine granulosa cell culture.
The granulosa cell culture protocol has been described previously (Zamberlam, Portela et al., 2011). Briefly, bovine ovaries were obtained at a local abattoir and transported to the lab where granulosa cells of antral follicles were collected by rinsing the follicle wall with Dulbecco's Modified Eagle Medium Nutrient Mixture F-12 (DMEMIF12, Invitrogen Life Technologies, Burlington, ON, Canada). Granullosa cells were maintained in culture for 6 days at 37° C. in 5% CO2, in 700 uL of culture medium (Zamberlam, Portela et al., 2011) which was replaced every 2 days. Cells were maintained in culture from Days 0 to 2, followed by the addition of 1 ng/mL of FSH from Days 2 to 4. On Day 4, depending on the treatment group, the culture medium was supplemented with 1 ng/mL FSH plus the estrogen inhibitor of interest, with FSH alone (positive control) or no FSH (negative control). On Day 6, the culture medium was collected and total protein was measured by the Bradford method (Bio-Rad, Mississauga, ON, Canada). Estradiol levels were determined by radioimmunoassay and expressed as total pg of estradiol per ug of protein.
Three different levels of each compound were tested. The standard concentration used for letrozole was 20 ng/mL. […] The standard dose of fenbendazole was based on a reported maximum concentration 160 ng/mL fenbendazole in plasma after a single oral administration of 7.5 mg/kg of body weight in cattle (Sanyal, 1994). Low and high doses of each aromatase inhibitor were arbitrarily set at standard concentration× 1/10 and standard concentration×10, respectively (Table 1).

Data set [3] concerns ovarian function in heifers. Kind of data set: Example III: ovarian function and ovulation synchrony after letrozole device plus PGF and GnRH in heifers. The following applies: for Dominant follicle diameter (mm) at day before ovulation: GnRH 24 h later, mean ± SEM; for Ovulation failure / Ovulation in relation to GnRH: Before / Ovulation in relation to GnRH: Synchronized: number of heifers. Further details: Degree of synchrony (residuals of the interval from GnRH to ovulation): unit not given here. It is filed as in vivo, cattle. From the text:
(§1) Heifers were examined daily by transrectal ultrasonography to determined the interval to ovulation, which served as control data for comparison with the synchronizing effect of subsequent aromatase inhibitor treatment in the same animals. One heifer was excluded for further use due to aggressive behaviour and handling difficulty. At the time of ovulation (Day 0), heifers were assigned randomly to five groups (n=8-10/group) and given an intravaginal device with a wax-based plus gel coat formulation containing 3 g of letrozole (as described in Example 1) for 4 days starting on Day 0, 4, 8, 12, or 16. At the time of device removal, heifers were given 500 μg PGF followed by 100 μg of GnRH 24 h later (FIG. 10).
Ultrasound examinations were performed daily from two days before device insertion to 9 days after post-treatment ovulation. Observations from ultrasound examinations were recorded on a sketch sheet in which each ovary and its structures (CL and follicles a 4 mm in diameter) were represented by size and location. Ovulation was defined as the disappearance of a […] between successive examinations after GnRH treatment, and was confirmed by the subsequent detection of a CL [20]. The time of follicular wave emergence was defined as the day of ovulation, or retrospectively as the day when the dominant follicle was first identified at a diameter of 4 to 5 mm. If the dominant follicle was not identified until it reached 6 or 7 mm, the previous day was considered day of wave emergence. The dominant follicle of a wave was defined as the largest antral follicle of the wave. The day of onset of follicular and luteal regression was defined as the first day of an apparent progressive decrease in follicular and luteal diameters, respectively.
Statistical analyses were done using the Statistical Analysis System software package (SAS Learning Edition 9.1, 2006; SAS Institute Inc., Cary, N.C., USA). Time-series hormone data and follicular diameter profiles were analyzed by analysis of variance for repeated measures using the PROC MIXED procedure to determine the effects of day of treatment (0, 4, 8, 12, and 16), time, and their interactions. Individual time-point comparisons among groups were compared using the least significant difference (LSD) test. Single-point measurements (dominant follicle diameter at device insertion, pre-ovulatory follicle diameter, CL diameter 9 days after the post-treatment ovulation and interval from GnRH treatment to ovulation) were analyzed by one-way analysis of variance. The proportion of heifers that ovulated were compared by Chi-Square test. The degree of synchrony among groups was compared by analysis of variance of the residuals of the interval from GnRH to ovulation. Significance was defined as P≤0.05.

The subject of data set [4] is plasma estradiol. The experiment in a line: Example III: plasma estradiol at device removal in heifers. The data set is classed as in vivo, cattle.
Source text: as §1, with “One heifer was excluded for further use due to aggressive behaviour and handling difficulty.” left out
Blood samples were collected by coccygeal venipuncture into 10 mL heparinized vacuum tubes (Becton Dickinson Vacutainer Systems, Franklin Lakes, N.J., USA). Samples were collected at the time of device removal for estradiol measurement, and at 3, 6 and 9 days following the post-treatment ovulation to determine progesterone concentrations: Additionally, blood samples were collected on Days 4, 8, 12, and 16 from heifers included in Group 16 (Day 0=ovulation) to serve as control data for comparison of estradiol concentrations at the time of device removal in other treatment groups (Groups 0, 4, 8, and 12). […] Blood samples were centrifuged at 1500×g for 20 min and plasma was separated and stored in plastic tubes at −20° C. until assayed.
Plasma concentrations of estradiol were determined using a commercial radioimmunoassay kit (Double Antibody Estradiol; Diagnostic Products, Los Angeles, Calif., USA). The procedure was carried out in the Department of Animal Health and Biomedical Sciences, University of Wisconsin-Madison, as described, with the following modifications: Standards (0.78-100 pg/mL) were prepared in steroid-free (charcoal-treated) bovine plasma. The standards (250 μL in duplicate) and plasma samples (500 μL in duplicate) were extracted with 3 mL of diethyl ether, frozen in a dry-ice/methanol bath, decanted into assay tubes, and dried overnight under a fume hood. The dried samples and standards were re-suspended with 100 μL of assay buffer (0.1% gelatin in PBS).

In data set [5] the test system is ovulation. The experiment in a line: Induction of ovulation in women. The data set is classed as in vivo, human. As to conditions: women treated at 18 mm follicle diameter.
For data set [6], the system named is ovulation. Kind of data set: Inhibition of ovulation in cattle. It is filed as in vivo. The following applies: treatment during the pre-ovulatory wave in cattle.
The test system of data set [7] is MCF-7 cancer cell preparations. As to conditions: reported (Kudoh 1996; Bhatnagar 2007), read-out: half maximal inhibitory concentration (IC50); cited from earlier work.
The conditions of data set [8]: single oral administration of 7.5 mg/kg of body weight in cattle (Sanyal, 1994); cited from earlier work.
Where [9] appears, read: letrozole groups combined, letrozole device added to PGF-GnRH protocol.

In the case of `N#Cc1ccc(C(c2ccc(C#N)cc2)n2cncn2)cc1` [Letrozole, letrozole], the “potency relative to anastrozole” value in data set [1] is recorded as “approximately 11 times”. Further, the “dose at which estradiol synthesis was reduced to that of non-FSH-stimulated cells” value in data set [2] is 20 ng/mL. Also, the “concentration of estradiol compared with negative control (no FSH stimulation)” value in data set [2] is recorded as “did not differ from that of the negative control”. Besides, the “Dominant follicle diameter (mm) at day before ovulation” value in data set [3] (3 g letrozole device 4 days from Day 0, PGF at removal) was 12.8 ± 0.58^a mm; in data set [3] (3 g letrozole device 4 days from Day 4, PGF at removal) it was 16.4 ± 0.78^b mm; in data set [3] (3 g letrozole device 4 days from Day 8, PGF at removal), 14.5 ± 0.83^ab mm; in data set [3] (3 g letrozole device 4 days from Day 12, PGF at removal) it was 14.2 ± 0.48^ab mm; in data set [3] (3 g letrozole device 4 days from Day 16, PGF at removal), 11.7 ± 0.59^a mm. Besides, the “heifers with CL of normal diameter at last observation (percent)” value in data set [3] (9 days post-letrozole treatment ovulation) is listed as 62.5%. Further, in data set [3] (Letrozole groups combined), the “Days from GnRH treatment to ovulation” value is recorded as 1.9 ± 0.08 days. Moreover, the “Degree of synchrony (residuals of the interval from GnRH to ovulation)” value in data set [3] (Letrozole groups combined) was determined as 0.24 ± 0.07. In addition, in data set [3] (Letrozole groups combined), the “Ovulation failure (percent)” value is given as 6%. Besides, the “Ovulation in relation to GnRH: Before (percent)” value in data set [3] (Letrozole groups combined) is recorded as 12%. Further, in data set [3] (Letrozole groups combined), the “Ovulation in relation to GnRH: Synchronized (percent)” value was found to be 81%. For the same molecule, in data set [3] (by 9 days after ovulation), the “heifers that underwent luteolysis prior to the last observation (percent)” value was 37.5%. Further, the “heifers that underwent luteolysis prior to the last observation” value in data set [3] (by 9 days after ovulation, number of 48 heifers) was determined as 18. The “Proportion that ovulated (heifers/treated)” value in data set [3] (setting [9]) is recorded as 42/48. Besides, in data set [3] (setting [9]), the “Proportion that ovulated (percent)” value is listed as 87.1%. Moreover, the Ovulation failure in data set [3] (Letrozole groups combined) is 3; in data set [3] (treatment initiated on Day 0), 0; in data set [3] (treatment initiated on Day 4) it was 0; in data set [3] (treatment initiated on Day 8) it was 1; in data set [3] (treatment initiated on Day 12), 1; in data set [3] (treatment initiated on Day 16) it was 1. Moreover, the “Ovulation in relation to GnRH: Before” value came to 6 in data set [3] (Letrozole groups combined); 0 in data set [3] (treatment initiated on Day 0); 3 in data set [3] (treatment initiated on Day 4); 0 in data set [3] (treatment initiated on Day 8); 0 in data set [3] (treatment initiated on Day 12); 3 in data set [3] (treatment initiated on Day 16). Further, the “Ovulation in relation to GnRH: Synchronized” value is given as 39 in data set [3] (Letrozole groups combined); 10 in data set [3] (treatment initiated on Day 0); 7 in data set [3] (treatment initiated on Day 4); 7 in data set [3] (treatment initiated on Day 8); 10 in data set [3] (treatment initiated on Day 12); 5 in data set [3] (treatment initiated on Day 16). For the same molecule, the “estradiol concentrations at device removal compared to respective controls” value in data set [4] (Group 0 (P=0.02)) is “lower”; in data set [4] (Group 4 (P=0.05)) it was “lower”; in data set [4] (Group 8 (P=0.1)) it was “tended to be lower”; in data set [4] (Group 12 (P=0.9)) it was “not different from Day 12 controls”. Moreover, the “estradiol concentration at device removal (average)” value in data set [4] (all letrozole-treated groups) turned out to be 2.1 ± 0.24 pg/mL. In addition, in data set [5], the “ovulation earlier than controls” value was determined as 24 h. In data set [6], this molecule showed a delay of ovulation of 24 h. Also, the IC50 in data set [7] is 0.07 nM.
Consider `CC(C)(C#N)c1cc(Cn2cncn2)cc(C(C)(C)C#N)c1` [Anastrozole, anastrozole], for which, in data set [2], the “dose at which estradiol synthesis was reduced to that of non-FSH-stimulated cells” value came to 200 ng/mL and the “concentration of estradiol compared with negative control (no FSH stimulation)” value is on record as “did not differ from that of the negative control”. The IC50 in data set [7] was 0.82 nM.
Regarding `COC(=O)Nc1nc2ccc(Sc3ccccc3)cc2[nH]1` [Fenbendazole, fenbendazole], the “reduction of estradiol secretion by FSH-stimulated granulosa cells” value in data set [2] (at the levels tested) is recorded as “did not reduce estradiol secretion significantly”. In data set [8], the “maximum concentration in plasma” value is recorded as 160 ng/mL.
